The source of these data is USRE31617E, “Optionally substituted 1,2,3,5-tetrahydroimidezo(2,1-b)-quinazolin-2-ones and 6(H)-1,2,3,4-tetrahydropyimido(2,1-b)quinazolin-2-ones” (Bristol-Myers Company, priority 1982, dated 1984).

Series [1] relates to skin. Put plainly: Handling hazard observed in synthesis. The following applies: observation in synthesis.
Series [2] deals with genetically hypertensive rats. Put plainly: Blood pressure change after oral dosing (intra-arterial cannula and transducer). In kind it is in vivo, rat. Conditions: P.O. 50 mg./kg.; for change in vivo at 50 mg/kg: Rattus norvegicus, po, + increase, - decrease in b.p., tested as hydrochloride salts. On the procedure:
The blood pressure of unanesthetized rats and dogs was measured directly by means of a transducer attached to an intra-arterial cannula and in anesthetized dogs by a mercury manometer attached to a carotid cannula.
The compounds of the instant invention were tested as the hydrochloride salts by the above method in genetically hypertensive rats in doses of 50 mg./kg. orally.

Series [3] concerns rats, dogs, cats and rabbits. The following applies: prior art; cited from earlier work.

With `Cc1cccc([N+](=O)[O-])c1CCl` [2-Methyl-6-nitrobenzyl chloride], in series [1], the “lachrymator and skin irritant” value was “strong lachrymator and skin irritant”.

Turning to `COc1cccc2c1CN1CCC(=O)NC1=N2` [Compound 25], the change in vivo at 50 mg/kg in series [2] was 5 ± 3%. With `O=C1CCN2Cc3cc(Br)ccc3N=C2N1` [Compound 21, 8-Bromo-6-[H]-1,2,3,4-tetrahydropyrimido[2,1-b]quinazolin-2-one], the “Blood Pressure % Change Rats column: toxicity in words” value in series [2] is given as “Toxic”. Consider `COc1cccc2c1N=C1NC(=O)CCN1C2` [Compound 27], for which the change in vivo at 50 mg/kg in series [2] is -1 ± 4%. Turning to `COc1cc2c(cc1OC)N=C1NC(=O)CCN1C2` [Compound 28], the change in vivo at 50 mg/kg in series [2] was -7 ± 2%. As to `c1ccc2c(c1)CN1CCNC1=N2`, the antihypertensive activity result in series [3] is “potent antihypertensive activity”. As for `COc1ccc2c(c1)CN1CCC(=O)NC1=N2` [Compound 26], the change in vivo at 50 mg/kg in series [2] came to 19 ± 6%.
